# Assays:
# PPARα = target: T1, PPARα (Homo sapiens, UniProt Q07869); experiment: DiscoverX cell-based reporter assay, agonist mode
# T1 sequence (Q07869 1-468): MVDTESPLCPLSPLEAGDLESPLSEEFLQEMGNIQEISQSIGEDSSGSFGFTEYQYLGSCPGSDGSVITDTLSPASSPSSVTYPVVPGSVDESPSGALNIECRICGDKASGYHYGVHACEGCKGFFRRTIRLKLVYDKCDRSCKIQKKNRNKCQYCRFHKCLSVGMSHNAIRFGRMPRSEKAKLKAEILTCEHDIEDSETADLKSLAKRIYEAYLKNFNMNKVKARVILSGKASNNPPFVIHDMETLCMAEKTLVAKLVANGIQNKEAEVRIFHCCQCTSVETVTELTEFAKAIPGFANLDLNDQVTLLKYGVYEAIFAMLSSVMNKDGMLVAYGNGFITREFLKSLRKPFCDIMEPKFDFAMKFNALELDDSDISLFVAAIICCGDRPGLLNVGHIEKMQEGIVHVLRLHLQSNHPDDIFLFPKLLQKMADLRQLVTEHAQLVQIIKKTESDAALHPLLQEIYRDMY
# PPARδ = target: T2, PPARδ (Homo sapiens, UniProt Q03181); experiment: DiscoverX cell-based reporter assay, agonist mode
# T2 sequence (Q03181 1-441): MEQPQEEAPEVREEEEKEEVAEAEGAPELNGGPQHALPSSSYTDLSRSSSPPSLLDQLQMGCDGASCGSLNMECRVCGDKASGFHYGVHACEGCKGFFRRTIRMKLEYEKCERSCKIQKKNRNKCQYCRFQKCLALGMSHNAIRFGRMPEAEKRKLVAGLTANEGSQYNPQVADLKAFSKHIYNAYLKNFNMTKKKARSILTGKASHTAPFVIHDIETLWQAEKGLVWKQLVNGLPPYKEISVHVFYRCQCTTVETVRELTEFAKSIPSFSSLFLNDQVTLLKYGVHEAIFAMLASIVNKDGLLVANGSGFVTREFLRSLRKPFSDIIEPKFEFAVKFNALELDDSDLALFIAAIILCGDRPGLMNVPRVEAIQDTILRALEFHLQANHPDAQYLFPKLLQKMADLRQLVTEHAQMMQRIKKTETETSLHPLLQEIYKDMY
# GPR84 = GPR84 (Homo sapiens, UniProt Q9NQS5); experiment: DiscoverX cell-based reporter assay, agonist mode
# [1] = target: T3, F. prausnitzii FAAH (CGOBPECO_01956) (Faecalibacterium prausnitzii, UniProt A0A564UB45); experiment: LC-MS hydrolysis rate assay; type: biochemical; conditions: 100 uM OEA
# T3 sequence (A0A564UB45 31-399): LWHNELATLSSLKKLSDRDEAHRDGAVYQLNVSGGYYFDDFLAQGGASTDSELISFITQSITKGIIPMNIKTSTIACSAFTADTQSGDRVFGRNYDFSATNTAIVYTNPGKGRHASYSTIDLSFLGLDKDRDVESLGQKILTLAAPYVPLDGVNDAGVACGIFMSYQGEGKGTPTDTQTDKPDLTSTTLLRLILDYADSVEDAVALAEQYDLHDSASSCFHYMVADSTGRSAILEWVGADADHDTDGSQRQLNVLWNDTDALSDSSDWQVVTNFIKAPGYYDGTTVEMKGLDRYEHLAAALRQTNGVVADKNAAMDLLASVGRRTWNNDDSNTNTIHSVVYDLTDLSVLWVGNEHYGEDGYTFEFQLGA
# GPR84, sequence (Q9NQS5 whole entry): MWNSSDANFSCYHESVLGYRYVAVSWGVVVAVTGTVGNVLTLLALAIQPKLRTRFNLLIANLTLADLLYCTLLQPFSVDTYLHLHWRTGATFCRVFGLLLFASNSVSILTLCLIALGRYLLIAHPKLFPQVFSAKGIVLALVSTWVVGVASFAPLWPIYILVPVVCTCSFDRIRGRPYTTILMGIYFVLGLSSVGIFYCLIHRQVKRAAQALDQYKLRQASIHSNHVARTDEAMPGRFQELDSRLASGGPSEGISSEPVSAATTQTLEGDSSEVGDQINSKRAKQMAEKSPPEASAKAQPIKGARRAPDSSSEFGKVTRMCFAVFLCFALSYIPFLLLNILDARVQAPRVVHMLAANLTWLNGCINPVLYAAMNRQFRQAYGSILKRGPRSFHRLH
compound,measurement,setting,value
CCCCCCCC/C=C\CCCCCCCC(=O)NCCO [OEA],% activation at 10 μM,PPARα,OEA was a strong agonist of PPARδ and to a lesser extent PPARα
same,% activation at 10 μM,PPARδ,OEA was a strong agonist of PPARδ and to a lesser extent PPARα
same,% activation at 10 μM,GPR84,"GPR84, which was strongly activated by OEA"
same,LC-MS hydrolysis rate assay,[1],"hydrolytic activity of FAAH against PEA, OEA, C18:1-Arg, and C18:1-Lys (Fig. 2D)"

# From paper PMC11572954 (Science (New York, N.Y.), 2024)
